Source: ChEMBL document CHEMBL1139759, “Discovery and SAR studies of novel GlyT1 inhibitors” (Bioorg Med Chem Lett, 2007)

How the values were obtained:
[1] = molecular target: T1, Sodium- and chloride-dependent glycine transporter 2 (Homo sapiens, UniProt Q9Y345); experiment: Inhibition of [14C]glycine reuptake at human GlyT2 expressed in BE(2)-C cells; type: cell-based
T1 sequence (Q9Y345 whole entry): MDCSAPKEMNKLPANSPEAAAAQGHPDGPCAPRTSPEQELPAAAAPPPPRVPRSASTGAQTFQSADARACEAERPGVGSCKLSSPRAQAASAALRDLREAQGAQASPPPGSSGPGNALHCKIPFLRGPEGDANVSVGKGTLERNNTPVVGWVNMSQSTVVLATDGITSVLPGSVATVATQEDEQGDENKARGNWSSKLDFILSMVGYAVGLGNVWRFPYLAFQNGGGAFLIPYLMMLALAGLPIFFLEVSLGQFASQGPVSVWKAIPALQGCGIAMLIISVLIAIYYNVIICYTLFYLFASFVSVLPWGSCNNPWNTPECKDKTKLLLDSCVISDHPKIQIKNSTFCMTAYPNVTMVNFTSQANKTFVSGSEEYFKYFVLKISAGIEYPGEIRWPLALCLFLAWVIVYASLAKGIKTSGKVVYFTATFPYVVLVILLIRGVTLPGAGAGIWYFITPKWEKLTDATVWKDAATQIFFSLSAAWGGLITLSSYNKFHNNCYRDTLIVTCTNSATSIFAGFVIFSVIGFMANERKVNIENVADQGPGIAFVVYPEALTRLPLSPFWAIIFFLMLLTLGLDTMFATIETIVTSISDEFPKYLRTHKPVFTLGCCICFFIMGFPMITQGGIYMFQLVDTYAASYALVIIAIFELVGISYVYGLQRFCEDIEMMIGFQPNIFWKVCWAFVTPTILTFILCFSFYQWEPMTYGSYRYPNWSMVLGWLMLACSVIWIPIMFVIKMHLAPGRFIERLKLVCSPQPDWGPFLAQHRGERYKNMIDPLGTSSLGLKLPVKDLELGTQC

[2] = molecular target: T2, Sodium- and chloride-dependent glycine transporter 1 (Homo sapiens, UniProt P48067); experiment: Inhibition of [14C]glycine reuptake at human GlyT1 expressed in BE(2)-C cells; type: cell-based
T2 sequence (P48067 whole entry): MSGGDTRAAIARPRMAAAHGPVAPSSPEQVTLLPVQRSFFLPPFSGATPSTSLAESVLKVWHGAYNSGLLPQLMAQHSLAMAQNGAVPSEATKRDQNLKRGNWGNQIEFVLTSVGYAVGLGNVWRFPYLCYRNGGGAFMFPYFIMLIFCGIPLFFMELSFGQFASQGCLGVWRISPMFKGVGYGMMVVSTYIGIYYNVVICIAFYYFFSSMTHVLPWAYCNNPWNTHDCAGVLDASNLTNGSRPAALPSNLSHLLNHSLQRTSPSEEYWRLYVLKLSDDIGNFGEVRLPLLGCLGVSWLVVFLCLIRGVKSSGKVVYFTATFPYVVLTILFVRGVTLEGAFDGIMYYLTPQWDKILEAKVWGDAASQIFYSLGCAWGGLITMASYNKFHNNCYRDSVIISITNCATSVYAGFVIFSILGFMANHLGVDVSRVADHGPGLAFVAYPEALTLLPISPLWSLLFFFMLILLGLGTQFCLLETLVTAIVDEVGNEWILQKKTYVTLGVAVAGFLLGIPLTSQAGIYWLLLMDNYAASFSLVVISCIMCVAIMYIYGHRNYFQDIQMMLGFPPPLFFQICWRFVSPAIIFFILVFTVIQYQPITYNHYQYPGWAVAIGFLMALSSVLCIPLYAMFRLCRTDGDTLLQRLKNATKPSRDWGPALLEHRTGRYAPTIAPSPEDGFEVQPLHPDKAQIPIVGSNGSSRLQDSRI

Cerebrospinal fluid = experiment: Drug level in rat cerebrospinal fluid at 30 mg/kg, sc; type: ADME, organism-based; design: dose 30 mg/kg, route subcutaneous; conditions: in vivo
Rattus norvegicus = experiment: Increase in glycine level of Sprague-Dawley rat cerebrospinal fluid at 30 mg/kg, sc; type: functional; conditions: route subcutaneous

| Structure (SMILES) | IC50 [1] | IC50 [2] | Drug uptake (Cerebrospinal fluid) | Activity (Rattus norvegicus) |
| --- | --- | --- | --- | --- |
| COc1ccc(-c2ccc(OCCN(C)CC(=O)O)c(C(=O)c3cccs3)c2)cc1C | > 30000 nM | 18 nM | – | – |
| CN(CCOc1ccc(-c2ccccc2)cc1-c1ccsc1)CC(=O)O | > 30000 nM | 139 nM | – | – |
| CN(CCOc1ccc(-c2ccccc2)cc1C1CCCCC1)CC(=O)O | > 30000 nM | 251 nM | – | – |
| CN(CCOc1ccc(-c2ccc3c(c2)OCO3)cc1-c1ccccc1Cl)CC(=O)O | > 30000 nM | 12 nM | – | – |
| COc1ccc(-c2ccc(OCCN(C)CC(=O)O)c(-c3ccccc3Cl)c2)cc1C | > 30000 nM | 28 nM | – | – |
| CN(CCOc1ccc(-c2ccccc2)cc1-c1cccs1)CC(=O)O | > 30000 nM | 70 nM | 113 ng/mL | 196% |
| CN(CC[C@@H](Oc1ccc(-c2ccccc2)cc1)c1ccc(F)cc1)CC(=O)O | > 30000 nM | – | 47 ng/mL | 204% |
| CN(CCOc1ccc(-c2ccccc2Cl)cc1C(=O)c1cccs1)CC(=O)O | > 30000 nM | 175 nM | – | – |
| CN(CCOc1ccc(-c2ccc3c(c2)CCO3)cc1-c1cccs1)CC(=O)O | > 30000 nM | 17 nM | – | – |
| CN(CCOc1ccc(-c2ccc(Cl)cc2)cc1C(=O)c1cccs1)CC(=O)O | > 30000 nM | 68 nM | – | – |
| CN(CCOc1ccc(-c2ccc3c(c2)OCO3)cc1-c1cccs1)CC(=O)O | > 30000 nM | 34 nM | – | – |
| CN(CCOc1ccc(-c2ccccc2)cc1-c1nccs1)CC(=O)O | > 30000 nM | 957 nM | – | – |
| COc1cccc(-c2ccc(OCCN(C)CC(=O)O)c(C(=O)c3cccs3)c2)c1 | > 30000 nM | 104 nM | – | – |
| CN(CCOc1ccc(-c2ccc3c(c2)CCO3)cc1-c1ccccc1Cl)CC(=O)O | > 30000 nM | 13 nM | – | – |
| CN(CCOc1ccc(-c2ccccc2)cc1-c1cccc(Cl)c1)CC(=O)O | > 30000 nM | 674 nM | – | – |
| CN(CCOc1ccc(-c2ccccc2)cc1-c1ccccc1F)CC(=O)O | > 30000 nM | 108 nM | – | – |
| CN(CCOc1ccc(-c2ccccc2)cc1C(=O)c1cccs1)CC(=O)O | > 30000 nM | 45 nM | 15 ng/mL | 114% |
| Cc1ccc(-c2ccc(OCCN(C)CC(=O)O)c(C(=O)c3cccs3)c2)cc1 | > 30000 nM | 59 nM | – | – |
| CN(CCOc1ccc(-c2ccccc2)cc1Cc1ccccc1)CC(=O)O | > 30000 nM | 85 nM | – | – |
| CN(CCOc1ccc(-c2ccc3c(c2)OCO3)cc1C(=O)c1cccs1)CC(=O)O | > 30000 nM | 19 nM | – | – |
| CN(CCOc1ccc(-c2cccc(Cl)c2)cc1C(=O)c1cccs1)CC(=O)O | > 30000 nM | 26 nM | – | – |
| Cc1ccc(-c2ccc(OCCN(C)CC(=O)O)c(C(=O)c3cccs3)c2)cc1C | > 30000 nM | 76 nM | – | – |
| CN(CCOc1ccc(-c2ccc3c(c2)OCCO3)cc1-c1ccccc1Cl)CC(=O)O | > 30000 nM | 14 nM | – | – |

Now from value to compound, other results behind:

| IC50 [1] | IC50 [2] | Drug uptake (Cerebrospinal fluid) | Structure (SMILES) | Activity (Rattus norvegicus) |
| --- | --- | --- | --- | --- |
| > 30000 nM | 289 nM | – | CN(CCOc1ccc(-c2ccccc2)cc1CC1CCCCC1)CC(=O)O | – |
| > 30000 nM | 53 nM | 25 ng/mL | CN(CCOc1ccc(-c2ccccc2)cc1-c1ccccc1Cl)CC(=O)O | 155% |
| > 30000 nM | 25 nM | – | CN(CCOc1ccc(-c2ccc3c(c2)OCCO3)cc1-c1cccs1)CC(=O)O | – |
| > 30000 nM | 45 nM | – | Cc1cccc(-c2ccc(OCCN(C)CC(=O)O)c(C(=O)c3cccs3)c2)c1 | – |
| > 30000 nM | 496 nM | – | CN(CCOc1ccc(-c2ccccc2)cc1-c1cccc2ccccc12)CC(=O)O | – |
| > 30000 nM | 965 nM | – | CN(CCOc1ccc(-c2ccccc2)cc1-c1ccc(Cl)cc1)CC(=O)O | – |
| > 30000 nM | 702 nM | – | CN(CCOc1ccc(C(F)(F)F)cc1C(=O)c1cccs1)CC(=O)O | – |
| > 30000 nM | 161 nM | – | COc1ccc(-c2ccc(OCCN(C)CC(=O)O)c(-c3cccs3)c2)cc1C | – |
| > 30000 nM | 40 nM | – | CN(CCOc1ccc(-c2ccccc2)cc1Cc1cccs1)CC(=O)O | – |
| > 30000 nM | 27 nM | – | COc1ccc(-c2ccc(OCCN(C)CC(=O)O)c(C(=O)c3cccs3)c2)cc1 | – |
| > 30000 nM | 65 nM | – | CN(CCOc1ccc(-c2ccccc2)cc1C(=O)c1ccccc1)CC(=O)O | – |
| > 30000 nM | 229 nM | – | CN(CCOc1ccc(-c2ccccc2)cc1-c1ccccc1)CC(=O)O | – |
| > 30000 nM | 632 nM | – | Cc1ccccc1-c1ccc(OCCN(C)CC(=O)O)c(C(=O)c2cccs2)c1 | – |
| > 30000 nM | 834 nM | – | COc1ccc(-c2ccc(OCCN(C)CC(=O)O)c(C(=O)c3cccs3)c2)cc1OC | – |
| > 30000 nM | 56 nM | – | Cc1ccccc1-c1cc(-c2ccccc2)ccc1OCCN(C)CC(=O)O | – |
| > 30000 nM | 351 nM | – | COc1ccccc1-c1cc(-c2ccccc2)ccc1OCCN(C)CC(=O)O | – |
| > 30000 nM | 70 nM | – | CN(CCOc1ccc(-c2ccccc2)cc1C(=O)C1CCCCC1)CC(=O)O | – |
